# Assay results: publication PMC8530938 (Chemico-biological interactions, 2021)
# Read-outs that look alike come from different tables or passages of the source.
# Experiments:
# [1] = biological target: T1, T45G yeast alcohol dehydrogenase (ADH1) (Saccharomyces cerevisiae, UniProt P00330, T46G); test: biochemical; type: biochemical
# [2] = biological target: T1, T45G yeast alcohol dehydrogenase (ADH1)
# [3] = tested on: wild-type yeast alcohol dehydrogenase (ADH1); details: pH 7.3, 30 °C, ref [21], cited from earlier work
# yeast ADH1 = details: oxidation; ref [77]; cited from earlier work
# yeast ADH2 = details: oxidation; ref [77]; cited from earlier work
# [4] = tested on: horse liver ADH1E with S48A substitution; details: ref [6]; cited from earlier work
# [5] = biological target: T1, T45G yeast alcohol dehydrogenase (ADH1); test: Spectrophotometric titration with NAD+ in the presence of 10 mM pyrazole; type: binding; details: titration in the presence of 10 mM pyrazole
# horse liver ADH = details: cited from earlier work
# [6] = biological target: wild-type yeast enzyme (ADH1); details: read-out: Kd of NAD+; pH 8; ref [11]; cited from earlier work
# T1 sequence (P00330 2-348 T46G): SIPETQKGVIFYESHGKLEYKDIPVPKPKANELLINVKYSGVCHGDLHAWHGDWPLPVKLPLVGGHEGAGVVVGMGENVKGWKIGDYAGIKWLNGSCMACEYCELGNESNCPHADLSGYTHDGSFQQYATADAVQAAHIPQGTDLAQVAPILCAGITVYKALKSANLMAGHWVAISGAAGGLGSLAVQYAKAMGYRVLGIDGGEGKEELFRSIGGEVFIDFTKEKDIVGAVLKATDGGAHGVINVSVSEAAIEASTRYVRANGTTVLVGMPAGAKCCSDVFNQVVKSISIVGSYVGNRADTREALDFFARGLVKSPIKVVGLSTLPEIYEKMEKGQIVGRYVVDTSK
smiles,measurement,setting,value
CC=O [acetaldehyde],"V2/Et, turnover number for acetaldehyde reduction","[1]; pH 7.3, 30 °C",7.8 s⁻¹
same,"Kp, CH3CHO","[2]; pH 5.52, 30 °C",52 mM
same,V2/Et (acetaldehyde reduction),"[2]; pH 5.52, 30 °C",21 s⁻¹
same,"Kp, CH3CHO","[2]; pH 6.06, 30 °C",46 mM
same,V2/Et (acetaldehyde reduction),"[2]; pH 6.06, 30 °C",16 s⁻¹
same,"Kp, CH3CHO","[2]; pH 6.52, 30 °C",56 mM
same,V2/Et (acetaldehyde reduction),"[2]; pH 6.52, 30 °C",16 s⁻¹
same,"Kp, CH3CHO","[2]; pH 7.00, 30 °C",41 mM
same,V2/Et (acetaldehyde reduction),"[2]; pH 7.00, 30 °C",9.5 s⁻¹
same,"Kp, CH3CHO","[2]; pH 7.65, 30 °C",43 mM
same,V2/Et (acetaldehyde reduction),"[2]; pH 7.65, 30 °C",9.3 s⁻¹
same,"Kp, CH3CHO","[2]; pH 8.08, 30 °C",35 mM
same,V2/Et (acetaldehyde reduction),"[2]; pH 8.08, 30 °C",7.3 s⁻¹
same,"Kp, CH3CHO","[2]; pH 8.96, 30 °C",33 mM
same,V2/Et (acetaldehyde reduction),"[2]; pH 8.96, 30 °C",4.2 s⁻¹
same,"V2/Et, turnover number for acetaldehyde reduction",[3],1800 s⁻¹
"OCC(F)(F)F [CF3CH2OH, 2,2,2-trifluoroethanol]",Ki,[1],27000 µM
same,"increase of dissociation constant (Ki), T45G relative to wild type",[1]; pH 7.3,10 fold
same,Ki,"[3]; read-out: Ki, dissociation (inhibition) constant, competitive inhibitor of ethanol",2500 µM
OCc1ccccc1 [Benzyl alcohol],turnover number,yeast ADH1,0.012 s⁻¹
same,turnover number,yeast ADH2,1.9 s⁻¹
NC(=O)C1=CN([C@@H]2O[C@H](COP(=O)(O)OP(=O)(O)OC[C@H]3O[C@@H](n4cnc5c(N)ncnc54)[C@H](O)[C@@H]3O)[C@@H](O)[C@H]2O)C=CC1 [NADH],"Kq, Michaelis constant for NADH","[1]; pH 7.3, 30 °C",47 µM
same,Ki,"[1]; read-out: Kiq, dissociation (inhibition) constant for NADH, pH 7.3, 30 °C",70 µM
same,"Kq, NADH","[2]; pH 5.52, 30 °C",9.6 µM
same,"Kq, NADH","[2]; pH 6.06, 30 °C",3.4 µM
same,"Kq, NADH","[2]; pH 6.52, 30 °C",18 µM
same,"Kq, NADH","[2]; pH 7.00, 30 °C",13 µM
same,"Kq, NADH","[2]; pH 7.65, 30 °C",220 µM
same,"Kq, NADH","[2]; pH 8.08, 30 °C",320 µM
same,"Kq, NADH","[2]; pH 8.96, 30 °C",910 µM
same,Ki,"[2]; read-out: Kiq, NADH, pH 5.52, 30 °C",3.8 µM
same,Ki,"[2]; read-out: Kiq, NADH, pH 6.06, 30 °C",8.6 µM
same,Ki,"[2]; read-out: Kiq, NADH, pH 6.52, 30 °C",11 µM
same,Ki,"[2]; read-out: Kiq, NADH, pH 7.00, 30 °C",38 µM
same,Ki,"[2]; read-out: Kiq, NADH, pH 7.65, 30 °C",156 µM
same,Ki,"[2]; read-out: Kiq, NADH, pH 8.08, 30 °C",290 µM
same,Ki,"[2]; read-out: Kiq, NADH, pH 8.96, 30 °C",450 µM
same,"Kq, Michaelis constant for NADH",[3],94 µM
same,Ki,"[3]; read-out: Kiq, dissociation (inhibition) constant for NADH",31 µM
CCO [ethanol],"V1/Et, turnover number for ethanol oxidation","[1]; pH 7.3, 30 °C",0.64 s⁻¹
same,V1/Et (ethanol oxidation),"[2]; pH 5.60, 30 °C",0.11 s⁻¹
same,V1/Et (ethanol oxidation),"[2]; pH 6.05, 30 °C",0.19 s⁻¹
same,V1/Et (ethanol oxidation),"[2]; pH 6.54, 30 °C",0.32 s⁻¹
same,V1/Et (ethanol oxidation),"[2]; pH 7.00, 30 °C",0.42 s⁻¹
same,V1/Et (ethanol oxidation),"[2]; pH 8.07, 30 °C",0.72 s⁻¹
same,V1/Et (ethanol oxidation),"[2]; pH 9.00, 30 °C",0.56 s⁻¹
same,V1/Et (ethanol oxidation),"[2]; pH 9.95, 30 °C",0.44 s⁻¹
same,Kb,"[2]; read-out: Kb, CH3CH2OH, pH 9.95, 30 °C",91000 µM
same,"V1/Et, turnover number for ethanol oxidation",[3],360 s⁻¹
same,turnover with ethanol,[4],0.018 s⁻¹
NC(=O)c1ccc[n+]([C@@H]2O[C@H](COP(=O)([O-])OP(=O)(O)OC[C@H]3O[C@@H](n4cnc5c(N)ncnc54)[C@H](O)[C@@H]3O)[C@@H](O)[C@H]2O)c1 [NAD^+],"Ka, Michaelis constant for NAD+","[1]; pH 7.3, 30 °C, 83 mM potassium phosphate, 40 mM KCl, 0.25 mM EDTA",1500 µM
same,Ki,"[1]; read-out: Kia, dissociation (inhibition) constant for NAD+, pH 7.3, 30 °C",1600 µM
same,apparent Kd for NAD+,[5],about the same as for wild-type enzyme
same,"Ka, NAD+","[2]; pH 5.60, 30 °C",660 µM
same,"Ka, NAD+","[2]; pH 6.05, 30 °C",510 µM
same,"Ka, NAD+","[2]; pH 6.54, 30 °C",720 µM
same,"Ka, NAD+","[2]; pH 7.00, 30 °C",690 µM
same,"Ka, NAD+","[2]; pH 8.07, 30 °C",2100 µM
same,"Ka, NAD+","[2]; pH 9.00, 30 °C",2140 µM
same,"Ka, NAD+","[2]; pH 9.95, 30 °C",1580 µM
same,Ki,"[2]; read-out: Kia, NAD+, pH 5.60, 30 °C",800 µM
same,Ki,"[2]; read-out: Kia, NAD+, pH 6.05, 30 °C",650 µM
same,Ki,"[2]; read-out: Kia, NAD+, pH 6.54, 30 °C",720 µM
same,Ki,"[2]; read-out: Kia, NAD+, pH 7.00, 30 °C",880 µM
same,Ki,"[2]; read-out: Kia, NAD+, pH 8.07, 30 °C",1130 µM
same,Ki,"[2]; read-out: Kia, NAD+, pH 9.00, 30 °C",1470 µM
same,Ki,"[2]; read-out: Kia, NAD+, pH 9.95, 30 °C",2370 µM
same,"Ka, Michaelis constant for NAD+","[3]; 83 mM potassium phosphate, 40 mM KCl, 0.25 mM EDTA",160 µM
same,Ki,"[3]; read-out: Kia, dissociation (inhibition) constant for NAD+",950 µM
same,Kd,"horse liver ADH; read-out: Kd of NAD+, open conformation of the protonated enzyme, pH 8, ref [11]",670 µM
same,Kd,"horse liver ADH; read-out: observed dissociation constant for NAD+, after deprotonation and the conformational change, ref [52]",27 µM
same,Kd,[6],1000 µM
